From publication PMC10562414, “GLP-1R signaling neighborhoods associate with the susceptibility to adverse drug reactions of incretin mimetics” (Nature Communications, 2023)

What was measured:
[1] = tested on: HEK293 cells without GLP-1R (phosphoproteome); experiment: Phosphoproteomics, untransfected / mock-transfected control cells, 30 min; format: cell-based, human; settings: mock transfection, 1 μM, vs vehicle
Protocol: P values were calculated by a two-sided unpaired t-test.
HEK293 cells (350,000 cells/mL) were transfected in suspension using 3 μg of linear PEI (MW 25,000) per 1 μg of plasmid DNA and seeded onto poly-D-lysine-coated 60 mm dishes at a density of 1,750,000 cells per dish. After a 24-h incubation, cells were washed twice with PBS and placed in starvation media (DMEM with penicillin/streptomycin). After a 48-h incubation, cells were washed twice with HBSS and maintained in the same buffer. […] Cell extracts were prepared as previously described[64]–[66]. In short, 200 μL of the lysis buffer preheated at 95 °C (4% sodium dodecyl sulfate in 50 mM Tris adjusted to pH 8.5) was added to the cells. The samples were then denatured at 95 °C for 10 min, placed on ice and then sonicated using a probe sonicator (3 sec on, 3 sec off pulse, 1 min, 30% amplitude) (Branson). Lysate protein concentration was determined using the Pierce bicinchoninic acid assay kit (Thermo Fisher Scientific) according to the manufacturer’s instructions. The lysates were reduced using 5 mM dithiothreitol for 1 h at room temperature and alkylated using 15 mM iodoacetamide for 1 h at room temperature in the dark. Proteins were precipitated and digested on beads using MagReSyn Amine magnetic beads (ReSyn Biosciences) according to the manufacturer’s instructions. Protein digestion was conducted overnight at 37 °C with lysyl endopeptidase (LysC, Wako) (1:150 LysC/protein, w/w) and trypsin (1:300 trypsin/protein, w/w). 20% TFA, 2 M glycolic acid in 80% ACN were added to the samples at a 1:1 ratio for phosphopeptide enrichment using MagReSyn TiO2 magnetic beads (ReSyn Biosciences) according to the manufacturer’s instructions. The enriched phosphopeptides were dried overnight in a SpeedVac, resuspended into 5% formic acid (FA), desalted using StageTip (Thermo Fisher Scientific) according to the manufacturer’s instructions and dried in a SpeedVac. The experiment was performed in biological triplicates.
All parameters and settings regarding the acquisition of the proteomics data can be found in Supplementary Data 11, 12. For data acquisition, the instrument was set to peptide mode, with a trapping pressure set as low (2mTorr). An EASY-Spray Source (Thermo Fisher Scientific) was used and the column temperature was maintained with the integrated, temperature-controlled heater at 55 °C throughout the experiment. For the data presented in Fig. 5d, the column was heated at 50 °C following the manufacturer’s instructions (IonOpticks).
Acquired raw files were converted to mzML format by MSConvert (version 3.0.21258)[67] applying peak picking of the mass spectra with the vendor-provided algorithm (Thermo Fisher Scientific). The mzML files were analyzed using the FragPipe GUI v18 for both library and DIA search. […] Trypsin with up to 2 missed cleavages was set as digestion enzyme, oxidation of methionine, acetylation of the N-terminus and phosphorylation on serine, threonine and tyrosine (maximal occurrence was set to three) were set as variable modifications. Carbamidomethylation of cysteine residues was set as a fixed modification. Peptide length was restricted to 7 to 50 amino acids, and 500 to 5000 Da. […] DIA files were analyzed by DIA-NN 1.8.1[71], [72] using the previously generated library and monitor-command mode. Peptide quantification was performed based on the fragment elution profiles from the MS2 level (area under the curve). […]

[2] = target: GLP-1R (Homo sapiens, UniProt P43220); experiment: ebBRET pathway activation (15 pathways), Supplementary Fig. 14; compartment not given; format: cell-based
Chain of GLP-1R (P43220 24-463): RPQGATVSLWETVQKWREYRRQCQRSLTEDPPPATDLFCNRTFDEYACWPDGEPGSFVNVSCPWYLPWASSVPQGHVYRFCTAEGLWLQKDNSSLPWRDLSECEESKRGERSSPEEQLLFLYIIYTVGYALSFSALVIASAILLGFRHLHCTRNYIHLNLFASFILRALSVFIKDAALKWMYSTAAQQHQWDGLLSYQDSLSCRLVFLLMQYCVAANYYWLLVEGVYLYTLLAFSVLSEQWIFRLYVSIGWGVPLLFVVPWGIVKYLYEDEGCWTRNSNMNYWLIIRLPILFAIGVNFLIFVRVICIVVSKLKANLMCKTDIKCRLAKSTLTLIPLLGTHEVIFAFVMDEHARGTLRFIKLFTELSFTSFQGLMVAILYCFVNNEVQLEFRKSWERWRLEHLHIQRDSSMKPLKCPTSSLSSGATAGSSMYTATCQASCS

N#Cc1ccc(COc2cccc(C3CCN(Cc4nc5ccc(C(=O)O)cc5n4C[C@@H]4CCO4)CC3)n2)c(F)c1 [Danuglipron]
log2.foldchange, EIF3J S11 ([1]; p 0.0145494, n = 3): -0.5603 | log2.foldchange, VPS51 S18 (peptide ...EAPER) ([1]; p 0.168261, n = 3): -0.2294 | log2.foldchange, VPS51 S18 (peptide ...EAPERR) ([1]; p 0.181448, n = 3): 0.6501 | log2.foldchange, VPS51 S10 ([1]; p 0.364227, n = 3): 0.2093 | log2.foldchange, PABPN1 S19 ([1]; p 0.447985, n = 3): 0.07218 | Efficacy (normalized), GRK2/Gβγ ([2]; GRK2/Gβγ, Supplementary Fig. 14a, normalized): 0 | Efficacy (normalized), Gα11 ([2]; Gα11, Supplementary Fig. 14a, normalized): 0 | Potency (logEC50), Gα11 ([2]; Gα11, Supplementary Fig. 14b): 0 | Efficacy (normalized), Gα12 ([2]; Gα12, Supplementary Fig. 14a, normalized): 0 | Potency (logEC50), Gα12 ([2]; Gα12, Supplementary Fig. 14b): 0 | Efficacy (normalized), Gα13 ([2]; Gα13, Supplementary Fig. 14a, normalized): 0 | Potency (logEC50), Gα13 ([2]; Gα13, Supplementary Fig. 14b): 0 | Efficacy (normalized), Gα14 ([2]; Gα14, Supplementary Fig. 14a, normalized): 0 | Potency (logEC50), Gα14 ([2]; Gα14, Supplementary Fig. 14b): 0 | Efficacy (normalized), Gα15 ([2]; Gα15, Supplementary Fig. 14a, normalized): 0 | Potency (logEC50), Gα15 ([2]; Gα15, Supplementary Fig. 14b): 0 | Efficacy (normalized), Gαi1 ([2]; Gαi1, Supplementary Fig. 14a, normalized): 0 | Potency (logEC50), Gαi1 ([2]; Gαi1, Supplementary Fig. 14b): 0 | Efficacy (normalized), Gαi2 ([2]; Gαi2, Supplementary Fig. 14a, normalized): 0 | Potency (logEC50), Gαi2 ([2]; Gαi2, Supplementary Fig. 14b): 0 | Efficacy (normalized), Gαi3 ([2]; Gαi3, Supplementary Fig. 14a, normalized): 0 | Potency (logEC50), Gαi3 ([2]; Gαi3, Supplementary Fig. 14b): 0 | Efficacy (normalized), GαoA ([2]; GαoA, Supplementary Fig. 14a, normalized): 0 | Potency (logEC50), GαoA ([2]; GαoA, Supplementary Fig. 14b): 0 | Efficacy (normalized), GαoB ([2]; GαoB, Supplementary Fig. 14a, normalized): 0 | Potency (logEC50), GαoB ([2]; GαoB, Supplementary Fig. 14b): 0 | Efficacy (normalized), Gαq ([2]; Gαq, Supplementary Fig. 14a, normalized): 0 | Potency (logEC50), Gαq ([2]; Gαq, Supplementary Fig. 14b): 0 | Efficacy (normalized), Gαs ([2]; Gαs, Supplementary Fig. 14a, normalized): 0.8077 | Potency (logEC50), Gαs ([2]; Gαs, Supplementary Fig. 14b): 0.7638 | Efficacy (normalized), Gαz ([2]; Gαz, Supplementary Fig. 14a, normalized): 1 | Potency (logEC50), Gαz ([2]; Gαz, Supplementary Fig. 14b): 0.517 | Efficacy (normalized), βARR2 ([2]; βARR2, Supplementary Fig. 14a, normalized): 0.4942 | Potency (logEC50), βARR2 ([2]; βARR2, Supplementary Fig. 14b): 0.4339
